Assay results: patent US6610750B1, “Treatment of osteoarthritis” (Laboratoires Negma, priority 2000, dated 2003)

Experiments:
[1] = system: patients with severe to moderate hip osteoarthritis; test: three-year, randomized, double-blind, placebo-controlled study of radiological progression of hip osteoarthritis; type: in vivo, human
Description: In order to further explore the potential usefulness of diacerein in the treatment of osteoarthritis, and to closely monitor the relevance of the effects of the treatment by using an accurate radiographic technique, the inventors carried out a 3-year, randomized, double-blind and placebo-controlled multicenter clinical trial in 507 patients with hip osteoarthritis. The unexpected result of the study was that diacerein has a beneficial effect as a structure-modifying treatment for osteoarthritis, as evidenced radiographically by a reduction of the destructive progression of hip osteoarthritis. The results of this study are reported in Dougados M., Nguyen M., Berdah L., Lequesne M., Mazières B., Vignon E. 1999; “Evaluation of the structural (radiological) effect of diacerein in osteoarthritis of the hip: a 3-year placebo controlled study”, Osteoarthritis and Cart 7, Suppl. A: 123, and are by reference thereto incorporated herein in their entirety.
In a three-year, randomized, double-blind, placebo-controlled study, 507 patients with severe to moderate hip osteoarthritis were assigned to receive either diacerein, 50 mg twice daily, or an identical placebo. The primary criterion of radiological progression of osteoarthritis was defined by a reduction in the joint space width or at least 0.5 mm during the study. The annual joint space narrowing rate (mm/year) was also determined in the patients who completed the treatment.
A total of 482 patients who had at least two radiographs were evaluated. Baseline characteristics of the 241 patients in each group were similar. In the placebo group, 62.7% of the patients had radiological progression, compared to 53.9% in the diacerein group (log-rank test: p=0.037). Treatment was followed for three years by 269 patients, among whom 55.1% in the placebo group and 41.2% in the diacerein group had radiological progression (log-rank test: p=0.007).

solubility of diacerein = type: physicochemical
[2] = system: prostaglandin biosynthesis; settings: cited from earlier work
[3] = system: IL-1 and other cytokines (IL-6 and TNF); settings: several studies in vitro and with animal models of osteoarthritis; cited from earlier work
osteoarthritis = settings: after the start of the treatment; cited from earlier work

CC(=O)Oc1cccc2c1C(=O)c1c(OC(C)=O)cc(C(=O)O)cc1C2=O [diacerein, diacetylrhein]
annual joint space narrowing rate ([1]; 269 patients who completed three years, diacerein 50 mg twice daily, placebo 0.23±0.23, p=0.042): 0.18±0.25 mm/year | patients with radiological progression (reduction in joint space width of at least 0.5 mm) ([1]; 269 patients who followed treatment for three years, diacerein 50 mg twice daily, placebo 55.1%, log-rank p=0.007): 41.2% | patients with radiological progression (reduction in joint space width of at least 0.5 mm) ([1]; 482 patients with at least two radiographs, 241 per group, diacerein 50 mg twice daily, placebo 62.7%, log-rank p=0.037): 53.9% | structure-modifying effect as compared to placebo ([1]; over the three-year period): statistically significant structure-modifying effect | solubility in alcohol (solubility of diacerein; alcohol): virtually insoluble | solubility in water (solubility of diacerein; water): virtually insoluble | inhibitory effect on the phospholiphase, cyclo-oxygenase or lipo-oxygenase pathways (prostaglandin biosynthesis) [2]: no inhibitory effect | inhibition of IL-1 and other cytokines (IL-6 and TNF) [3]: inhibit | time of onset of the effect (osteoarthritis): ≥ 4 weeks
